Key:
[1] = system: BJAB cells; experiment: Selectivity: apoptosis (DNA fragmentation, flow cytometry) in lymphoma cells; assay type: cell-based
Protocol: WIL 071 acts selectively in malignant cells that are proliferating.
The DNA fragmentation was measured by flow cytometry, see FIG. 7. The experiments were performed in triplicate. The error bars show the standard deviations of the measured values of three independent experiments.

[2] = system: Nalm-6 cells; experiment: Half-maximal apoptosis induction (AC50) in Nalm-6 cells; assay type: cell-based; conditions: Homo sapiens; Nalm-6, 72 h, flow cytometry; read-out: Biological effect: half-maximal apoptosis induction (AC50)
Protocol: Apoptosis Induction in Nalm-6 Cells after Treatment with WIL-071 or Different Steroid Derivatives.
The cells were incubated in 6-well plates with 1.0·10^5 cells/mL in two milliliters of medium with the respective steroid derivative in different concentrations. The included solvent control (DMSO) served as a control, which was subtracted from all the other measured values, in order not to take into account the spontaneous apoptosis of the cells that takes place independently of the concentration of active ingredient. After 72 h, a modified cell cycle analysis was performed, in order to quantify the proportion of apoptotic cells by flow cytometry. For each concentration of the steroid, the respective mean values f standard deviations, n=3 (*: p<0.05 vs. DMSO, t test) were determined. Using the curve of the dose-effect relationship (steroid concentration−apoptosis induction) formed from these measured values, the steroid concentration at which apoptosis was triggered in 50% of the tested leukemia cells was read.

[3] = Tolerability (dose escalation, MTD) in an animal model; assay type: in vivo, NOG-F (Taconic) mice
Protocol: An incremental increase of dose of the three substances Wil-071, Wil-232 and Wil-369 was performed in 8-week-old female NOG-F (Taconic) mice. Different mice were administered one of up to seven different doses of the test substances. The start was on day 1 with the lowest dose of 10 mg/kg. […] All in all, if possible, the doses 10, 20, 40, 80, 100, 150 and 200 mg/kg are tested. Subsequently, the maximum tolerable dose (MTD) was administered to three more animals, and these were subsequently observed for one week, in order to be able to observe any developing symptoms. For this purpose, the animals were observed and weighed on a daily basis. The body weight is considered an indicator of the general condition of the animals.
For the MTD experiment, Wil-071 was dissolved in 100% DMSO, and then diluted 1:50 with a 20% (w/v) 2-hydroxypropyl-beta-cyclodextrin (HPβCD) solution. Thus, 200 μL of injection solution (per mouse) of a 40 mg/kg dose could be achieved. For 80, 100 and 150 mg/kg, the DMSO proportion was increased to up to 4% (v/v) in the final injection solution. In addition, ultrasound had to be employed, and the sample had to be heated at 60° C. for up to 45 min. 200 mg/kg was reached only as a milky suspension. […] Therefore, Wil-071 can be considered non-toxic up to 150 mg/kg. The final MTD could not be determined because of the insufficient solubility.
For 100 mg/kg of Wil-232, the end concentration of DMSO in the injection solution was 2%. In order to dissolve Wil-232, the sample also had to be treated with ultrasound, and heated at 60° C. The dose of 150 mg/kg was achieved only with 4% DMSO, and 200 mg/kg was achieved only as a suspension. […] Otherwise, there were no signs of toxicity, so that the substance can be considered tolerable up to 150 mg/kg. In this case too, a final MTD cannot be determined because of insufficient solubility.
Using a DMSO stock and 20% HPβCD solution, a maximum of only 5 mg/ml was dissolved. A further increase could not be achieved even with more DMSO or HPβCD. Thus, above the dose of 40 mg/kg, a higher injection volume was injected in order to reach the corresponding dose. […] For the tolerability under the current solubility conditions, a value of […] is to be applied. This dose was injected into the 8 animals for pharmacokinetics. In this case too, a final MTD cannot be determined because of insufficient solubility.

[4] = system: 7-CCA cells; experiment: Apoptosis induction in polycytostatics-resistant 7-CCA cells vs BJAB; assay type: cell-based; conditions: doxorubicin-resistant BJAB, caspase-3 underexpression
Protocol: 7-CCA cells are lymphoma cells (BJAB cells) that have been made resistent against doxorubin, and have a caspase-3 underexpression as a resistence mechanism. They have co-resistences for the following cytostatics: • vincristine, vinblastine, vindesine, vinorelbin, taxol • cytarabin, fudarabin, cladribin, clofarabin, • daunorubicin, doxorubicin, idarubicin, epirubicin • cisplatin, oxaliplatin
The experiments were performed in triplicate. The error bars show the standard deviations of the measured values of three independent experiments. The steroid WIL 071 overcomes steroid resistence in lymphoma cells (7-CCA cells).

[5] = system: pancreatic carcinoma cells (DAN-G); experiment: Apoptosis in pancreatic carcinoma cells; assay type: cell-based; conditions: DAN-G cell line
Protocol: In contrast to conventional glucocorticoids, the steroid WIL 071 can induce apoptosis also in pancreatic carcinoma cells.
The DNA fragmentation was measured by flow cytometry, see FIG. 11. The experiments were performed in triplicate. The error bars show the standard deviations of the measured values of three independent experiments.
The standard treatment for pancreatic carcinoma includes 5-fluorouracil.

[6] = system: Nalm-6 cells; experiment: Synergistic apoptosis induction with cytarabin or vincristine; assay type: cell-based
Protocol: The experiments were performed in triplicate. The error bars show the standard deviations of the measured values of three independent experiments.

In the case of `CC(C)CCC[C@@H](C)[C@H]1CC[C@H]2[C@@H]3[C@H]4OC[C@@]5(CC[C@H](O)C[C@]5(O)C4=O)[C@H]3CC[C@]12C` [WIL-071, 3β,5α-dihydroxy-7β,19-epoxy-cholestan-6-one], the “apoptosis induction (DNA fragmentation)” value [1] is reported as “apoptosis is induced in a concentration-dependent way”, the AC50 [2] is reported as 17.2 µM and the “outcome of injection of the 200 mg/kg suspension” value ([3]; 200 mg/kg as suspension, signs of pulmonary embolism in section) is reported as “immediate death of the animal”. For the same compound, the “dose up to which non-toxic / tolerable” value ([3]; injection into caudal vein, mice, final MTD not determinable because of solubility) was “up to 150 mg/kg”, the “apoptosis induction in resistant 7-CCA cells compared with BJAB” value [4] was “induces as much apoptosis as in the non-resistent lymphoma cells” and the “apoptosis induction (DNA fragmentation)” value [5] was “significantly induces apoptosis”. For the same compound, the “synergistic effect on apoptosis with cytarabin” value ([6]; Nalm-6, parallel treatment with cytarabin) was “synergistic effects” and the “synergistic effect on apoptosis with vincristine” value ([6]; Nalm-6, parallel treatment with vincristine) was “synergistic effects”.

— US20240398836A1, “EPOXY STEROIDS” (priority 2021, published 2024)
